Source: the supplement of paper PMC10307832

Columns and labels:
Experiment in all cases: relative viability (nuclei count vs DMSO), 5 days (fraction); higher = more cells survive
[1] = compound: Cn1nnc2c(C(N)=O)ncn2c1=O [Temozolomide] + NC(=O)Nc1cc(-c2cccc(F)c2)sc1C(=O)N[C@H]1CCCNC1 [AZD7762] (partner 0.2 µM)
Outline: (§1)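 One day after seeding in 1536-well plates, lung cancer cell lines were dosed by pin tool. Dosing was either single-drug or a fixed anchor-drug dose plus five library-drug doses (not always all listed) in √10 steps. After 5 days, nuclei were stained in one fix-and-stain step and counted on 4× images, and relative viability is the nuclei count of treated wells over that of vehicle wells, given as the median of duplicate plates.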

[2] = compound: C[C@@H](C(=O)N[C@@H](C1CCCCC1)C(=O)N2CCC[C@H]2C(=O)N[C@@H]3[C@@H](CC4=CC=CC=C34)OCC#CC#CCO[C@@H]5CC6=CC=CC=C6[C@@H]5NC(=O)[C@@H]7CCCN7C(=O)[C@H](C8CCCCC8)NC(=O)[C@H](C)NC)NC [AZD5582] + Cc1nc(NC(=O)N2CCC[C@H]2C(N)=O)sc1-c1ccnc(C(C)(C)C(F)(F)F)c1 [Alpelisib] (partner 2 µM)
Outline: as §1

[3] = compound: Cn1nnc2c(C(N)=O)ncn2c1=O [Temozolomide] + CC(C)C[C@H](NC(=O)[C@H](Cc1ccccc1)NC(=O)c1cnccn1)B(O)O [Bortezomib] (partner 0.002 µM)
Outline: as §1

[4] = compound: Cn1nnc2c(C(N)=O)ncn2c1=O [Temozolomide] + CC(=O)c1c(C)c2cnc(Nc3ccc(N4CCNCC4)cn3)nc2n(C2CCCC2)c1=O [Palbociclib] (partner 0.5 µM)
Outline: as §1

EKVX
relative viability ([1]; first compound 0.6325 µM): 0.743
relative viability ([1]; first compound 2 µM): 0.681
relative viability ([1]; first compound 6.325 µM): 0.67
relative viability ([1]; first compound 20 µM): 0.418
relative viability ([2]; first compound 0.001581 µM): 0.868
relative viability ([2]; first compound 0.005 µM): 1.03
relative viability ([2]; first compound 0.01581 µM): 0.82
relative viability ([2]; first compound 0.05 µM): 1.08
relative viability ([3]; first compound 0.2 µM): 0.991
relative viability ([3]; first compound 0.6325 µM): 1.1
relative viability ([3]; first compound 2 µM): 1.06
relative viability ([3]; first compound 6.325 µM): 0.996
relative viability ([3]; first compound 20 µM): 0.884
relative viability ([4]; first compound 0.6325 µM): 0.322
relative viability ([4]; first compound 2 µM): 0.292
relative viability ([4]; first compound 6.325 µM): 0.323
relative viability ([4]; first compound 20 µM): 0.223
